Results published in patent US11986512B2, “Compositions and methods for cancer therapy” (Thetis Pharmaceuticals LLC, priority 2021, dated 2024).

Tests used:
Assay type in all cases: in vivo, C57BL/6J male mice
KPC cells = assay: Orthotopic KPC model of pancreatic cancer, survival
Experimental: To expand our understanding of less than daily (LTD) dosing of bis RvE1 Mg-di-lysinate as a cancer therapy that could be used in combination with chemotherapy, bis RvE1 Mg-di-lysinate (Compound 1) was investigated in the orthotopic KPC model of pancreatic cancer. A total of fifteen (15) C57BL/6J male mice were implanted orthotopically with 5×10e5 living KPC cells into the pancreas. The mice were randomized (n=7-8) to treatment with bis RvE1 Mg-di-lysinate (300 ug/kg, SC, Q6D) with or without gemcitabine (50 mg/kg, IP, Q3D, up to 6 doses) one day after tumor cell implantation.

Panc2-H7 model = Panc2-H7 model with or without CD8 neutralizing antibody
Experimental: Based on the findings with bis RvE1 Mg-di-lysinate administered in combination with anti-PD1 in two different tumor models (i.e., Panc2-H7 and LLC), daily (QD) and weekly (Q7D) dosing of bis RvE1 Mg-di-lysinate was investigated in the Panc2-H7 model, with and without an antibody that depletes CD8+ T-cells, which play a major role in the antitumor immune response of immune checkpoint inhibitors. A total of thirty (30) C57BL/6J male mice were injected subcutaneously with 1×10e6 living […]. Once tumors reached 220-240 mm^3 in size based on mean tumor volume per cohort, the mice were randomized (n=6 per group) to treatment with vehicle, bis RvE1 Mg-di-lysinate (300 ug/kg, SC, QD or Q7D), with or without CD8 neutralizing antibody (200 ug IP Q3D). All mice were sacrificed on day 20 when the average tumor size of the placebo group exceeded 2,000 mm^3.

Panc2 cells = assay: Panc2-H7 model with or without anti-CTLA4
Experimental: To further corroborate the findings with weekly dosing of bis RvE1 Mg-di-lysinate and its efficacy in combination with immune checkpoint inhibitors (ICI), another study was conducted in the Panc2-H7 model with a different ICI. A total of twenty-four (24) C57BL/6J male mice were injected subcutaneously with 1×10e6 living Panc2 cells. Once tumors reached 200 mm^3 in size based on mean tumor volume per cohort, the mice were randomized (n=8 per group) to treatment with vehicle, bis RvE1 Mg-di-lysinate (300 ug/kg, SC, Q7D) and bis RvE1 Mg-di-lysinate+anti-CTLA-4 (4 mg/kg, i.p, first dose; 2 mg/kg i.p, Q3D following the first dose).

B16F10 cells = assay: B16F10 model of melanoma, with anti-PD1 and anti-CTLA4
Experimental: A representative compound of Formula IV, RvE1 magnesium dilysinate, was tested for efficacy in several mouse models of cancer, including the Panc2-H7 model of pancreatic cancer, the Lewis lung carcinoma (LLC) model, the MC38 model of colorectal cancer, and the B16F10 model of melanoma. These models are well established, highly tumorigenic syngeneic models in which murine cancer cell lines are injected subcutaneously (SC) into the dorsum of C57BL/6J mice. If left untreated, these tumors grow rapidly and lead to death or euthanasia, per protocol. As detailed below in Examples 1-9 and the accompanying figures, bis RvE1 Mg-di-lysinate (Compound 1) was unexpectedly effective as an anti-cancer agent in each of these model systems when administered in a less than daily (LTD) dosing regimen. […] Without being bound by any theory, the surprising efficacy of LTD dosing of resolvins in the cancer model systems described here may be the result of durable effects on the tumor microenvironment including changes in immune cell phenotype, vascularization, stromal phenotype, and antigen presentation, as well as durable effects on the T-cell compartment such as T-cell priming and increased tumor-infiltrating lymphocytes.
Based on the finding of increased efficacy with bis RvE1 Mg-di-lysinate administered in combination with anti-PD1 monotherapy and anti-CTLA4 monotherapy, a study was conducted to investigate the efficacy of less than daily (LTD) bis RvE1 Mg-di-lysinate combined with both anti-PD1 and anti-CTLA4 in the B16F10 model of melanoma. […] See Perez-Ruiz E, et al. Nature. 2019; 569(7756):428-432. Thus, this initial study with ICI dual therapy was designed to investigate whether use of bis RvE1 Mg-di-lysinate with the ICI dual therapy could enhance efficacy, which may offer the opportunity to reduce the dose of the ICI components of the regimen without loss of efficacy. A total of sixty-four (64) C57BL/6J male mice were injected subcutaneously with 1×10e6 living B16F10 cells in the dorsum. When tumors reached a mean tumor volume of approximately 130 mme3, the mice were randomized (n=8 per group) to treatment with vehicle, bis RvE1 Mg-di-lysinate (300 ug/kg, SC, Q6D), anti-PD1 (8 mg/kg, i.p., Q3D) or anti-CTLA-4 (4 mg/kg, Q3D). The double combinations of bis RvE1 Mg-di-lysinate and anti-CTLA-4 or anti-PD1, and anti-PD1 with anti-CTLA-4, as well as the triple combination of bis RvE1 Mg-di-lysinate, anti-CTLA-4 and anti-PD1 were also investigated. All combination arms used the same dosing regimens as the individual monotherapies. The mice were sacrificed on day 12 per protocol when the mean tumor of the vehicle group reached approximately 2,000 mm^3. […] This is clinically relevant for melanoma patients receiving anti-PD1 monotherapy, which is used when the side effects of ICI dual therapy are not tolerated.

[1] = triple therapy (bis RvE1 Mg-di-lysinate + anti-CTLA-4 + anti-PD1), p<0.001

CC[C@@H](O)/C=C/C=C\C[C@@H](O)/C=C/C=C/C=C\[C@@H](O)CCCC(=O)O [bis RvE1 Mg-di-lysinate]
mean survival (KPC cells; bis RvE1 Mg-di-lysinate 300 ug/kg SC Q6D in combination with gemcitabine 50 mg/kg IP Q3D up to 6 doses): 129 days | mice alive as of the last observation (day 250) (KPC cells; bis RvE1 Mg-di-lysinate + gemcitabine combination group, three of the seven mice): 43% | increase in survival, combination versus gemcitabine monotherapy (KPC cells; bis RvE1 Mg-di-lysinate + gemcitabine, p<0.05): four-fold increase in survival | efficacy of weekly (Q7D) relative to daily (QD) dosing (Panc2-H7 model; 300 ug/kg SC, mice not receiving the neutralizing antibody): comparable and possibly superior efficacy relative to daily (QD) dosing | tumor volume over time (Panc2-H7 model; 300 ug/kg, SC, Q7D, without CD8 neutralizing antibody, p<0.01 vs placebo and vs same regimen + CD8 depletion): significant inhibition compared to placebo control | tumor volume over time (Panc2 cells; bis RvE1 Mg-di-lysinate 300 ug/kg SC Q7D + anti-CTLA-4 (4 mg/kg i.p first dose, 2 mg/kg i.p Q3D), p<0.001): significant inhibition related to both placebo and bis RvE1 Mg-di-lysinate alone | tumor volume over time (Panc2 cells; monotherapy, 300 ug/kg, SC, Q7D): significant inhibition as monotherapy compared to placebo | inhibition compared to anti-PD1 monotherapy (B16F10 cells; double combination of bis RvE1 Mg-di-lysinate 300 ug/kg SC Q6D and anti-PD1 8 mg/kg i.p. Q3D, p<0.05): 54% | efficacy of LTD dosing (B16F10 cells; monotherapy, 300 ug/kg, SC, Q6D): effective as monotherapy | tumor growth inhibition compared to anti-CTLA-4 monotherapy (B16F10 cells; [1]): 71% | tumor growth inhibition compared to anti-PD1 monotherapy (B16F10 cells; [1]): 87% | inhibition, tumor volume at day 12 divided by tumor volume at day 0 (B16F10 cells; triple therapy: bis RvE1 Mg-di-lysinate 300 ug/kg SC Q6D + anti-CTLA-4 4 mg/kg Q3D + anti-PD1 8 mg/kg i.p. Q3D, p<0.05): 67%
